In PubChem BioAssay (NCI):
Values joined by “and” are separate entries in the source; they are usually repeats but may differ in a detail not shown here. Identical values can stand only once.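 Grown in 96-well plates, cells were treated for 48 hours with each compound at five concentrations. Insufficient inhibition: endpoint recorded as highest concentration tested. Here, GI50 denotes the concentration required for 50% inhibition of growth. The concentration for full growth arrest is given as TGI.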

Tests used:
Test in all cases: NCI tumour cell line growth inhibition, 48 h
A498 renal = system: A498 renal
CAKI-1 renal = system: CAKI-1 renal
HCT-15 colon = system: HCT-15 colon
KM12 colon = system: KM12 colon
NCI-H226 lung = system: NCI-H226 lung
SK-MEL-2 melanoma = system: SK-MEL-2 melanoma
SNB-19 CNS = system: SNB-19 CNS
SNB-75 CNS = system: SNB-75 CNS
NCI/ADR-RES ovarian = system: NCI/ADR-RES ovarian
PC-3 prostate = system: PC-3 prostate

O=C1C2C3CC(C4C5C=CC(C5)C34)C2C2C3CC(C12)C1C2C=CC(C2)C31 (stereo not drawn)
TGI (A498 renal): > 100 µM
TGI (CAKI-1 renal): > 100 µM
TGI (HCT-15 colon): > 100 µM
TGI (KM12 colon): > 100 µM
TGI (NCI-H226 lung): > 100 µM
TGI (SK-MEL-2 melanoma): > 100 µM
TGI (SNB-19 CNS): > 100 µM
TGI (SNB-75 CNS): > 100 µM

COc1ccc(OC)c(/C=N/N=C(\N)NO)c1
TGI (CAKI-1 renal): 71.4 µM
TGI (HCT-15 colon): > 100 µM
TGI (KM12 colon): > 100 µM
TGI (NCI-H226 lung): > 100 µM
TGI (SK-MEL-2 melanoma): > 100 µM
TGI (SNB-19 CNS): > 100 µM
TGI (SNB-75 CNS): > 100 µM

Cc1cccc(C)c1N1C(=O)C(=O)C(c2nc3ccccc3s2)/C(=N\N)C1=O (stereo not drawn)
TGI (A498 renal): > 100 µM
TGI (CAKI-1 renal): > 100 µM
TGI (HCT-15 colon): > 100 µM
TGI (KM12 colon): > 100 µM
TGI (NCI-H226 lung): > 100 µM
TGI (SK-MEL-2 melanoma): > 100 µM
TGI (SNB-19 CNS): > 100 µM
TGI (SNB-75 CNS): > 100 µM

CNS(=O)(=O)NNS(=O)(=O)c1ccc(OC)cc1
TGI (A498 renal): > 100 µM
TGI (CAKI-1 renal): > 100 µM
TGI (HCT-15 colon): > 100 µM
TGI (KM12 colon): > 100 µM
TGI (SK-MEL-2 melanoma): > 100 µM
TGI (SNB-19 CNS): > 100 µM
TGI (SNB-75 CNS): > 100 µM

COc1cc(/C=N/N=C(\N)NO)c(Cl)cc1O
TGI (A498 renal): > 100 µM
TGI (CAKI-1 renal): > 100 µM
TGI (HCT-15 colon): > 100 µM
TGI (KM12 colon): > 100 µM
TGI (NCI-H226 lung): > 100 µM
TGI (SK-MEL-2 melanoma): > 100 µM
TGI (SNB-19 CNS): > 100 µM

O=C(c1ccc(Cl)cc1)C(O)c1ccc(Cl)cc1 (stereo not drawn)
TGI (CAKI-1 renal): > 100 µM
TGI (HCT-15 colon): > 100 µM
TGI (KM12 colon): > 100 µM
TGI (NCI-H226 lung): > 100 µM
TGI (NCI/ADR-RES ovarian): > 100 µM
TGI (PC-3 prostate): > 100 µM
TGI (SK-MEL-2 melanoma): > 100 µM
TGI (SNB-19 CNS): > 100 µM
TGI (SNB-75 CNS): > 100 µM

CC(=O)[CH-]C(=O)c1ccccc1.CC(=O)[CH-]C(=O)c1ccccc1.CC(=O)[CH-]C(=O)c1ccccc1.[Nd+3].[OH3+]
GI50 (A498 renal): > 100 µM
TGI (A498 renal): > 100 µM
GI50 (CAKI-1 renal): 61 µM
TGI (CAKI-1 renal): > 100 µM
GI50 (HCT-15 colon): 42 µM
TGI (HCT-15 colon): > 100 µM
GI50 (KM12 colon): 13.4 µM
TGI (KM12 colon): > 100 µM
GI50 (NCI-H226 lung): > 100 µM
TGI (NCI-H226 lung): > 100 µM
GI50 (SK-MEL-2 melanoma): 25.9 µM
TGI (SK-MEL-2 melanoma): > 100 µM
GI50 (SNB-19 CNS): > 100 µM
TGI (SNB-19 CNS): > 100 µM
GI50 (SNB-75 CNS): 6.66 µM
TGI (SNB-75 CNS): 43.4 µM

NC1=NN(c2ccccc2)C(=O)C1C(=O)C(=O)Nc1ccc(Cl)c(Cl)c1 (stereo not drawn)
TGI (A498 renal): > 100 µM
TGI (CAKI-1 renal): > 100 µM
TGI (HCT-15 colon): > 100 µM
TGI (KM12 colon): > 100 µM
TGI (NCI-H226 lung): > 100 µM
TGI (SK-MEL-2 melanoma): > 100 µM
TGI (SNB-19 CNS): > 100 µM
TGI (SNB-75 CNS): 85 µM

CN(/N=C\c1ccnc2ccccc12)c1ccc([N+](=O)[O-])cc1
TGI (A498 renal): > 100 µM
TGI (CAKI-1 renal): > 100 µM
TGI (HCT-15 colon): > 100 µM
TGI (KM12 colon): > 100 µM
TGI (NCI-H226 lung): > 100 µM
TGI (SK-MEL-2 melanoma): > 100 µM
TGI (SNB-19 CNS): > 100 µM
TGI (SNB-75 CNS): > 100 µM

COc1c(-c2ccccc2)nc2ccc(Oc3ccccc3)nn12
TGI (A498 renal): > 66.5 µM
TGI (CAKI-1 renal): > 100 µM
TGI (HCT-15 colon): > 100 µM
TGI (KM12 colon): > 100 µM
TGI (NCI-H226 lung): 98.1 µM
TGI (SK-MEL-2 melanoma): > 94.4 µM
TGI (SNB-19 CNS): > 100 µM
TGI (SNB-75 CNS): > 100 µM

O=C(Nc1ccc(Cl)c(Cl)c1)C(=O)C(C(=O)c1ccccc1-c1ccccc1)C1OC(=O)c2ccccc21 (stereo not drawn)
TGI (A498 renal): 65.5 µM
TGI (KM12 colon): 43.2 µM
TGI (NCI-H226 lung): 15.1 µM
TGI (SK-MEL-2 melanoma): 24.7 µM
TGI (SNB-75 CNS): 41.3 µM

COC(=O)[C@@H]1Cc2c([nH]c3ccccc23)[C@H](c2ccccc2)N1
TGI (A498 renal): 48.6 µM
TGI (CAKI-1 renal): > 100 µM
TGI (HCT-15 colon): 41.3 µM
TGI (KM12 colon): > 100 µM
TGI (NCI-H226 lung): > 100 µM
TGI (SK-MEL-2 melanoma): 82.8 µM
TGI (SNB-19 CNS): > 100 µM
TGI (SNB-75 CNS): 86.1 µM

Nc1c(Cl)ncnc1NCCCCCCCCCCCCNc1ncnc(Cl)c1N
TGI (A498 renal): > 100 µM
TGI (HCT-15 colon): > 100 µM
TGI (KM12 colon): > 100 µM
TGI (SK-MEL-2 melanoma): 7.92 µM
TGI (SNB-19 CNS): > 100 µM
TGI (SNB-75 CNS): 7.16 µM

COC1(OC)C2(Cl)C(Cl)=C(Cl)C1(Cl)C1C2C2CC1(C(=O)O)c1ccccc12 (stereo not drawn)
TGI (A498 renal): > 100 µM
TGI (CAKI-1 renal): 83.1 µM
TGI (HCT-15 colon): 62.3 µM
TGI (NCI-H226 lung): 52.5 µM
TGI (SNB-19 CNS): > 100 µM

C/C(=C(\c1ccc(OCCN2CCCCCC2)cc1)c1ccc(OC(=O)c2ccccc2)cc1)c1ccc(Cl)cc1
GI50 (A498 renal): 3.79 µM
TGI (A498 renal): 8.09 µM
GI50 (CAKI-1 renal): 3.86 µM
TGI (CAKI-1 renal): 9.27 µM
GI50 (HCT-15 colon): 1.4 µM
TGI (HCT-15 colon): 5.99 µM
GI50 (KM12 colon): 3.14 µM
TGI (KM12 colon): 8.72 µM
GI50 (NCI-H226 lung): 5.47 µM
TGI (NCI-H226 lung): 11.1 µM
GI50 (NCI/ADR-RES ovarian): 4.56 µM
TGI (NCI/ADR-RES ovarian): 11.2 µM
GI50 (PC-3 prostate): 2.36 µM
TGI (PC-3 prostate): 8.45 µM
GI50 (SK-MEL-2 melanoma): 5.32 µM
TGI (SK-MEL-2 melanoma): 10.5 µM
GI50 (SNB-19 CNS): 6.61 µM
TGI (SNB-19 CNS): 18.5 µM

CC(=O)c1cc(C(=O)c2ccc3c(c2)Sc2ccccc2N3)n2ccccc12
GI50 (A498 renal): 0.00225 µM and 0.00332 µM
GI50 (CAKI-1 renal): 0.00368 µM and 0.00369 µM
TGI (CAKI-1 renal): > 33.2 µM
GI50 (HCT-15 colon): 0.00472 µM and 0.00332 µM
TGI (HCT-15 colon): > 33.2 µM
GI50 (KM12 colon): 0.00441 µM
TGI (NCI-H226 lung): > 33.2 µM
GI50 (NCI/ADR-RES ovarian): 0.00393 µM and 0.00332 µM
TGI (NCI/ADR-RES ovarian): 1.86 µM
GI50 (PC-3 prostate): 0.00453 µM and 0.00332 µM
TGI (PC-3 prostate): > 33.2 µM
GI50 (SK-MEL-2 melanoma): 0.00477 µM
GI50 (SNB-19 CNS): 0.00824 µM

COC1OC2COC(C)(C)OC2C(OC(C)=O)C1NC(=O)N(CCCl)N=O (stereo not drawn)
TGI (A498 renal): > 100 µM
TGI (CAKI-1 renal): > 100 µM
TGI (HCT-15 colon): > 100 µM
TGI (KM12 colon): > 100 µM
TGI (NCI-H226 lung): > 100 µM
TGI (SK-MEL-2 melanoma): > 100 µM
TGI (SNB-19 CNS): > 100 µM
TGI (SNB-75 CNS): > 100 µM

O=C1c2ccccc2C2CCC1c1ccccc12 (stereo not drawn)
TGI (A498 renal): > 100 µM
TGI (CAKI-1 renal): > 100 µM
TGI (HCT-15 colon): > 100 µM
TGI (KM12 colon): > 100 µM
TGI (NCI-H226 lung): > 100 µM
TGI (SK-MEL-2 melanoma): 94 µM
TGI (SNB-19 CNS): > 100 µM
TGI (SNB-75 CNS): > 100 µM

O=C(Nc1ccc(Cl)cc1Cl)OC(Cn1cncn1)c1ccc(Cl)cc1Cl (stereo not drawn)
TGI (A498 renal): 34.2 µM
TGI (HCT-15 colon): 31.1 µM
TGI (KM12 colon): 31 µM
TGI (NCI-H226 lung): 39 µM
TGI (SK-MEL-2 melanoma): 33.7 µM
TGI (SNB-19 CNS): 30.8 µM
TGI (SNB-75 CNS): 30.1 µM

O=C(/C=C\c1cccc2ccccc12)c1ccc(Cl)cc1Cl
TGI (A498 renal): > 100 µM
TGI (CAKI-1 renal): > 100 µM
TGI (HCT-15 colon): 26.6 µM
TGI (KM12 colon): 31 µM
TGI (NCI-H226 lung): > 100 µM
TGI (SNB-19 CNS): 72.9 µM
TGI (SNB-75 CNS): > 100 µM

COc1ccc([C@@]23Oc4cc(OC)cc(OC)c4[C@]2(O)[C@H](O)[C@H](C(N)=O)[C@H]3c2ccccc2)cc1
GI50 (A498 renal): < 0.013 µM
TGI (A498 renal): < 0.0215 µM
TGI (CAKI-1 renal): 0.0838 µM
GI50 (HCT-15 colon): 0.0177 µM
TGI (HCT-15 colon): 0.33 µM and 0.229 µM
TGI (KM12 colon): 0.0999 µM
TGI (NCI-H226 lung): 0.0935 µM and < 0.0283 µM
GI50 (NCI/ADR-RES ovarian): 0.0504 µM
TGI (NCI/ADR-RES ovarian): 0.687 µM and 0.867 µM
GI50 (SK-MEL-2 melanoma): < 0.0147 µM
TGI (SK-MEL-2 melanoma): 0.0556 µM and 0.0738 µM
TGI (SNB-19 CNS): 0.0999 µM
GI50 (SNB-75 CNS): < 0.01 µM
TGI (SNB-75 CNS): 0.119 µM

N#CC(C(=O)/C(=N\NC(N)=O)C(C#N)c1ccccc1)c1ccccc1 (stereo not drawn)
TGI (A498 renal): > 100 µM
TGI (CAKI-1 renal): > 100 µM
TGI (HCT-15 colon): > 100 µM
TGI (KM12 colon): > 100 µM
TGI (NCI-H226 lung): > 100 µM
TGI (SK-MEL-2 melanoma): > 100 µM
TGI (SNB-19 CNS): > 100 µM
TGI (SNB-75 CNS): > 100 µM
